The nature of series [1]: Solubility test in simulated biological fluids (FaSSGF), UPLC. The format is physicochemical. The note with it: Fasted-State Simulated Gastric Fluid (FaSSGF), fassgf or other biorelevant, thermodynamic from solid, pH 1.6, samples containing equal amounts of BBR. The method, then:
The solubility test was conducted by comparing samples containing equal amounts of BBR. […] The analysis was conducted by the UPLC (Ultra High Performance Liquid Chromatography) method described below: ANALYSIS CONDITIONS: Flow rate: 0.4 ml/minute; Detection: 348 nm. SAMPLE SOLUTION: 30 mg in 200 ml (Chromatogram of a typical sample of ˜0.15 mg/ml, in FIG. 1). STANDARD SOLUTION: 10 mg of pure reference BBR in 200 ml of methanol (Standard solution ˜0.05 mg/ml, typical chromatogram in FIG. 2). The solubility test was conducted using Fasted-State Simulated Gastric Fluid (FaSSGF), prepared as reported below, as solvent. 1) Preparation of an NaCl/HCl solution for FaSSGF (1 litre): 2 g of NaCl was dissolved in […] of purified water, the pH was adjusted to 1.6 with HCl, and the mixture was made up to volume with purified water (1 litre). 2) 0.06 g of powder* (FaSSGF—Biorelevant media) was added to about 500 ml of the NaCl/HCl solution at room temperature and made up to volume (1 l) with the NaCl/HCl solution to obtain a clear, ready-for-use liquid. *Final sodium taurocholate 0.08 mM, final lecithin 0.02 mM

For series [2] the following is noted: oral administration; cited from earlier work.

Bounds are passed on as bounds.

Regarding `COc1ccc2cc3[n+](cc2c1OC)CCc1cc2c(cc1-3)OCO2` [Reference 1, berberine], in series [1], the concentration in solution (solubility) came to 113 µg/mL.

With `COc1ccc2cc3[n+](cc2c1OC)CCc1cc2c(cc1-3)OCO2` [BBR, Berberine], in series [2], the “fraction which reaches the systemic circulation” value is recorded as 0.36% and the oral absorption was ≤ 0.5 % of the administered dose.

The values above are taken from patent publication US11786513B2, “Compositions comprising berberine” (INDENA S.P.A., priority 2018, dated 2023).
